The record followed here is patent US8901133B2, “Heterocyclic compounds and uses thereof” (Infinity Pharmaceuticals, Inc., priority 2010, dated 2014).

Common to all, as to format: biochemical
One experiment addresses T1, PI3Kγ (Homo sapiens, UniProt P48736).
T1 construct: purchased Millipore Corporation 14-558-K
Description: PI3 Kinase HTRF assay, PI3Kγ. The settings on record: 10 μM PIP2, 10 μM ATP; read-out: PI3K γ IC50. The source says: (§1) A PI3 Kinase HTRF® assay kit (cat No. 33-016) purchased from Millipore Corporation was used to screen compounds disclosed herein. This assay used specific, high affinity binding of the GRP1 pleckstrin homology (PH) domain to PIP3, the product of a Class 1A or 1B PI3 Kinase acting on its physiological substrate PIP2. During the detection phase of the assay, a complex was generated between the GST-tagged PH domain and biotinylated short chain PIP3. The biotinylated PIP3 and the GST-tagged PH domain recruited fluorophores (Streptavidin-Allophycocyanin and Europium-labeled anti-GST respectively) to form the fluorescence resonance energy transfer (FRET) architecture, generating a stable time-resolved FRET signal. The FRET complex was disrupted in a competitive manner by non-biotinylated PIP3, a product formed in the PI3 Kinase assay.
(§2) PI3 Kinase α, β, γ and δ activity was assayed using the PI3 Kinase HTRF® assay kit (catalogue No. 33-016) purchased from Millipore Corporation. Purified recombinant PI3Kα (catalogue No. 14-602-K), PI3Kβ (catalogue No. 14-603-K), PI3Kγ (catalogue No. 14-558-K) and PI3Kδ (catalogue No. 14-604-K) were obtained from Millipore Corporation. Purified recombinant PI3K enzyme was used to catalyze the phosphorylation of phosphatidylinositol 4,5-bisphosphate (PIP2 at 10 μM) to phosphatidylinositol 3,4,5-trisphosphate (PIP3) in the presence of 10 μM ATP. The assay was carried out in 384-well format and detected using a Perkin Elmer En Vision Xcite Multilabel Reader. Emission ratios were converted into percent inhibitions and imported into GraphPad Prism software. The concentration necessary to achieve inhibition of enzyme activity by 50% (IC50) was calculated using concentrations ranging from 20 μM to 0.1 nM (12-point curve). IC50 values were determined using a nonlinear regression model available in GraphPad Prism 5. […]

The target of the next experiment is T2, PI3Kβ (Homo sapiens, UniProt P42338).
T2 construct: purchased Millipore Corporation 14-603-K
T2 sequence (P42338 whole entry): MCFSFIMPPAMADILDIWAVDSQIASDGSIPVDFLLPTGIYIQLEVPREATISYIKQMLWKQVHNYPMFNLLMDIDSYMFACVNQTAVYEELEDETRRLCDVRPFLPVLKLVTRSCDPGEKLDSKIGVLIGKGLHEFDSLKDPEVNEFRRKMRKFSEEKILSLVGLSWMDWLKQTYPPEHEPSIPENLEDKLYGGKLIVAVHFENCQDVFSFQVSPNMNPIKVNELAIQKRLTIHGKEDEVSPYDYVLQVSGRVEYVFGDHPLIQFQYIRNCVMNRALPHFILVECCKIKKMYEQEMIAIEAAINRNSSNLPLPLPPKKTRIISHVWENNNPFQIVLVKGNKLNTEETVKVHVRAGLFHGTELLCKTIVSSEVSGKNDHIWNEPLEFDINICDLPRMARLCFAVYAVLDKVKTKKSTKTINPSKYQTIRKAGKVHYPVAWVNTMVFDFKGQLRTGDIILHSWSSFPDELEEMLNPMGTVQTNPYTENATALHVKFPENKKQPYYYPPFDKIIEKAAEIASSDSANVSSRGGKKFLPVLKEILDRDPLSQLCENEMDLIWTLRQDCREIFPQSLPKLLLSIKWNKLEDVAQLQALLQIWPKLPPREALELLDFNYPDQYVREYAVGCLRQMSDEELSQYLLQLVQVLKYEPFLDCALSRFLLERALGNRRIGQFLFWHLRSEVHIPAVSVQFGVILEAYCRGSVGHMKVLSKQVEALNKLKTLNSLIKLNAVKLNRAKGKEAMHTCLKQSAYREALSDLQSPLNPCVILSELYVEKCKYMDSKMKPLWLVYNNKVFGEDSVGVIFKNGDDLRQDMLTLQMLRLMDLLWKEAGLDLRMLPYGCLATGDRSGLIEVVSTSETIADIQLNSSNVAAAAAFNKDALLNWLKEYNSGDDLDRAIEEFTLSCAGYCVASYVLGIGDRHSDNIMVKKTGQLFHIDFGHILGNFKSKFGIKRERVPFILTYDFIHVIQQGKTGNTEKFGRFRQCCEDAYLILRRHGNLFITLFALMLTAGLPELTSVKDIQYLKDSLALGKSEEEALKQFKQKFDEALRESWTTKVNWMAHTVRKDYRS
T2 sequence (P27986 whole entry partner): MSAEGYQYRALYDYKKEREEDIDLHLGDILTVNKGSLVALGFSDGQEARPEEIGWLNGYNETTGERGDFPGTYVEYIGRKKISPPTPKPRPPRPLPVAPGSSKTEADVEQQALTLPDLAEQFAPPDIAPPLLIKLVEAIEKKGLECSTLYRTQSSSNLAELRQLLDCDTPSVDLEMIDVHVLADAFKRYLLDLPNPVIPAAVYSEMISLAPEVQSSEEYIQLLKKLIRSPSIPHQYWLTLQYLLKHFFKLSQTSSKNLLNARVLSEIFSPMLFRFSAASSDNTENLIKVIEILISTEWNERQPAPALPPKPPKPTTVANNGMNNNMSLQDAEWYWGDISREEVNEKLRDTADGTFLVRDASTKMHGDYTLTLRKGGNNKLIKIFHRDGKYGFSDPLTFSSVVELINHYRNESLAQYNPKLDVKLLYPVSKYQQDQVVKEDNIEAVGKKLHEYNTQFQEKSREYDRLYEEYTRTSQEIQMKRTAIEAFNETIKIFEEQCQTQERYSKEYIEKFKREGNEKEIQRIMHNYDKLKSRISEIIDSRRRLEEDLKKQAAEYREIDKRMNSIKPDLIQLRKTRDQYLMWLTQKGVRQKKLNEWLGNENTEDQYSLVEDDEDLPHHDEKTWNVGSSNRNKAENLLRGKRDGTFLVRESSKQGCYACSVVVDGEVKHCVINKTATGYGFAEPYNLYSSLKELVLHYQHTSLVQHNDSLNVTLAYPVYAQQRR
Kind of experiment: PI3 Kinase HTRF assay, PI3Kβ. The settings on record: 10 μM PIP2, 10 μM ATP; read-out: PI3K β IC50.
Excerpt: as §1, §2
For orientation: TR-FRET usually uses a lanthanide donor and a delayed reading to cut background.

Another experiment deals with T3, PI3Kα (Homo sapiens, UniProt P42336).
T3 construct: purchased Millipore Corporation 14-602-K
T3 sequence (P42336 whole entry): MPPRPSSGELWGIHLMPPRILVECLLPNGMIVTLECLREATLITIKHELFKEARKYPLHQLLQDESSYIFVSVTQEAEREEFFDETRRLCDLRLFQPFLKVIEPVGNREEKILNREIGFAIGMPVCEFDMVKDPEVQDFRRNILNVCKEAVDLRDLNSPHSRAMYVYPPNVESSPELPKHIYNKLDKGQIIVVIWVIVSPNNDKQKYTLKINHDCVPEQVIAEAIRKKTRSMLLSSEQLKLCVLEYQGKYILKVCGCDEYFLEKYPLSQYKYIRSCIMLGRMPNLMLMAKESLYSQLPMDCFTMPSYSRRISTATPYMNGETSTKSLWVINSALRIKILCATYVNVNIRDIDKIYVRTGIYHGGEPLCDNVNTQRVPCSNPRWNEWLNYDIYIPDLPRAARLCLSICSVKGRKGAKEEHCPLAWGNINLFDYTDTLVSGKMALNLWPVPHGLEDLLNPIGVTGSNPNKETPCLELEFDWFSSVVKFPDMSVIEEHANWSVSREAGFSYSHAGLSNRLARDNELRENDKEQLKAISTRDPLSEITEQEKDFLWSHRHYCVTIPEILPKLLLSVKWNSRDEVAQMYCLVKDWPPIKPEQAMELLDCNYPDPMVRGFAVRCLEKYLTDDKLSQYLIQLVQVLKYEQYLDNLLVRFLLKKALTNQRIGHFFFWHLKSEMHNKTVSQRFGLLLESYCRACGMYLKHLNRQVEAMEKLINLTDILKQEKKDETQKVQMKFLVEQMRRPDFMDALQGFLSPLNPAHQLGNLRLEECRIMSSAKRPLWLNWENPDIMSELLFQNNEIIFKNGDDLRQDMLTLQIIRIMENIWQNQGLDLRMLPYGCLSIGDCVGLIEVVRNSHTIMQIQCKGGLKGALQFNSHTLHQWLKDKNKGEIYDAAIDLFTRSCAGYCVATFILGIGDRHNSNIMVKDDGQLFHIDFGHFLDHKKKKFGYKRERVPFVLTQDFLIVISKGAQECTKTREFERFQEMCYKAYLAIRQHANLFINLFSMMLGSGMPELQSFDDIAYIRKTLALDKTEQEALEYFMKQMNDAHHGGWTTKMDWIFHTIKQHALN
T3 sequence (P27986 whole entry partner): as the sequence (P27986 whole entry partner) above
Kind of experiment: PI3 Kinase HTRF assay, PI3Kα. The settings on record: 10 μM PIP2, 10 μM ATP; read-out: PI3K α IC50.
Excerpt: as §1, §2

A further experiment concerns the target T4, PI3Kδ (Homo sapiens, UniProt O00329).
T4 construct: purchased Millipore Corporation 14-604-K
Description: PI3 Kinase HTRF assay, PI3Kδ. The following applies: 10 μM PIP2, 10 μM ATP; read-out: PI3K δ IC50.
Excerpt: as §1, §2

T1 sequence (P48736 whole entry): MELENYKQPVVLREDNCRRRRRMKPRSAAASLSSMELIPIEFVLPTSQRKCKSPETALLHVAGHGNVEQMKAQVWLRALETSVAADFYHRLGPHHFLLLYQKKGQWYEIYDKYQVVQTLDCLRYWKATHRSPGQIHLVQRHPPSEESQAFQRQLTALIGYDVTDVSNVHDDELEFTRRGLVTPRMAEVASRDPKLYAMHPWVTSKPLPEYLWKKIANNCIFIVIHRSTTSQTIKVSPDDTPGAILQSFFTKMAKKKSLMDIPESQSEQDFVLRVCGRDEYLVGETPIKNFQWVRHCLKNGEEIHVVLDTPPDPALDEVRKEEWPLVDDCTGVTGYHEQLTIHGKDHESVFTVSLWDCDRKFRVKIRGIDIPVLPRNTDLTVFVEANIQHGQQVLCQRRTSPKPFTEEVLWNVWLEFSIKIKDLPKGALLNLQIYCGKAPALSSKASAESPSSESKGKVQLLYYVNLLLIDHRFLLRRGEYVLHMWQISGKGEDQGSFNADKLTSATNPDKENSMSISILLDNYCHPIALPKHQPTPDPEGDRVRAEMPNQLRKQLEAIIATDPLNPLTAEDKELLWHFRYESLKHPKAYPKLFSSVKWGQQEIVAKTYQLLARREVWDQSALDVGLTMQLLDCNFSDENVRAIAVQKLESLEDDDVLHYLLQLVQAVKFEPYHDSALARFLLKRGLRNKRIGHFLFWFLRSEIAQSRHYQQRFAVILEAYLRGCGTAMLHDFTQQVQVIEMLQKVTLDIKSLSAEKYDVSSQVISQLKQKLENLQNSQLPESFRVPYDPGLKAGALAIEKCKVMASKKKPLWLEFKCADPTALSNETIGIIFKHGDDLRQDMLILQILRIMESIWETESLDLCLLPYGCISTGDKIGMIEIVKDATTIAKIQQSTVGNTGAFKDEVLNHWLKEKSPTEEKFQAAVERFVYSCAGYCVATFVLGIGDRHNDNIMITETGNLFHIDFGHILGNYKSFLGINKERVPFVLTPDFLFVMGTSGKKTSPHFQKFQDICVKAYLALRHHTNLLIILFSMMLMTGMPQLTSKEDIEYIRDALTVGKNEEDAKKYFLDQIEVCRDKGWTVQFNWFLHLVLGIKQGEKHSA
T4 sequence (O00329 whole entry): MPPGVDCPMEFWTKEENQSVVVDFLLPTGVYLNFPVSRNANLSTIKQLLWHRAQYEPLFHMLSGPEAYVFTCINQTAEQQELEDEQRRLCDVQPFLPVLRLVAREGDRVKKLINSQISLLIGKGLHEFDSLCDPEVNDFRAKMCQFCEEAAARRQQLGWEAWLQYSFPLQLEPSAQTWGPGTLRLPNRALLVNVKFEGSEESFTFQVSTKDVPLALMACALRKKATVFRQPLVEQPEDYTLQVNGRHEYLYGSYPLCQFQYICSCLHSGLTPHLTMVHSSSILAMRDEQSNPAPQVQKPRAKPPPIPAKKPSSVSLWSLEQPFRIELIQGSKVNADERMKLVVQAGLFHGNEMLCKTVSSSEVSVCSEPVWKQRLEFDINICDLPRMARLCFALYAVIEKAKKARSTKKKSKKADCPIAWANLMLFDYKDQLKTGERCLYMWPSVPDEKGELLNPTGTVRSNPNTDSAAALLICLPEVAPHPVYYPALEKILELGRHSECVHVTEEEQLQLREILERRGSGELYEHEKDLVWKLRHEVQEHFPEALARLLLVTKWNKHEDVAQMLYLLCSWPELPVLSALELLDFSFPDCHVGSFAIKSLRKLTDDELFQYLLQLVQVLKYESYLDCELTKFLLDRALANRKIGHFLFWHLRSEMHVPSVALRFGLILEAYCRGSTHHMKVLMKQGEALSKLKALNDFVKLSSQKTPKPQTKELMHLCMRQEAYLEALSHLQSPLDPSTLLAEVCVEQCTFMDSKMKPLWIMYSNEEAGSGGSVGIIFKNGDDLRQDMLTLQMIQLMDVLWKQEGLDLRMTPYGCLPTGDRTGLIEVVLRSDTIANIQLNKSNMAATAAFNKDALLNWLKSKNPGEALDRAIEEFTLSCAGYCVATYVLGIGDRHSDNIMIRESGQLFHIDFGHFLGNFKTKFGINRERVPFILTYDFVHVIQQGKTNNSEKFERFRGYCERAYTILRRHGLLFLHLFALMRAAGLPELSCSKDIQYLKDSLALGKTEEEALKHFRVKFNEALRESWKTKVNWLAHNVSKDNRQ
T4 sequence (P27986 whole entry partner): as the sequence (P27986 whole entry partner) above

For the compound `C[C@H](Nc1ncnc2[nH]cnc12)c1cc2cccc(Cl)c2c(OCC(C)(C)O)n1` [Compound 88], the IC50 on PI3Kγ was less than 10 µM; on PI3Kβ it was less than 10 µM; at PI3Kα, less than 10 µM; at PI3Kδ, less than 1 µM.
Turning to `C[C@H](NC(=O)c1nccnc1N)c1cc2cccc(Cl)c2c(CCN2CCOCC2)n1` [Compound 89, (S)-3-amino-N-(1-(8-chloro-1-(2-morpholinoethyl)isoquinolin-3-yl)ethyl)pyrazine-2-carboxamide], the concentration for half-maximal inhibition (IC50) at PI3Kγ is less than 10 µM; on PI3Kβ, less than 10 µM; on PI3Kα, greater than 10 µM; on PI3Kδ it was less than 1 µM.
As to `C[C@H](Nc1ncnc2[nH]cnc12)c1cc2cccc(Cl)c2c(SCC[N+]2([O-])CCOCC2)n1` [Compound 94], the IC50 on PI3Kγ was less than 1 µM; at PI3Kβ it was less than 10 µM; at PI3Kα, less than 10 µM; at PI3Kδ, less than 0.1 µM.
Turning to `C[C@H](Nc1ncnc2cccnc12)c1cc2cccc(Cl)c2c(N2CCN(C)CC2)n1` [Compound 96], the IC50 was less than 0.1 µM on PI3Kγ, less than 1 µM on PI3Kβ, less than 1 µM at PI3Kα and less than 0.1 µM at PI3Kδ.
For the compound `C[C@H](Nc1ccnc2ccnn12)c1cc2cccc(Cl)c2c(N2CCN(C)CC2)n1` [Compound 97], the IC50 was greater than 10 µM on PI3Kγ, less than 10 µM on PI3Kβ, greater than 10 µM on PI3Kα and less than 0.1 µM on PI3Kδ.
As for `C[C@H](Nc1ncnc2[nH]cnc12)c1cc2cccc(F)c2c(N2CCN(C)CC2)n1` [Compound 100], the IC50 is greater than 10 µM at PI3Kγ, greater than 10 µM at PI3Kβ, greater than 10 µM at PI3Kα and less than 0.1 µM on PI3Kδ.
For `C[C@H](Nc1ncnc2cccnc12)c1cc2cccc(Cl)c2c(OCCN2CCCC2)n1` [Compound 105], the IC50 on PI3Kγ is less than 1 µM; on PI3Kβ, less than 10 µM; on PI3Kα, less than 1 µM; at PI3Kδ, less than 0.1 µM.
Take `C[C@H](Nc1ccnc2ccnn12)c1cc2cccc(Cl)c2c(OCCN2CCCC2)n1` [Compound 106]: the IC50 on PI3Kγ is less than 10 µM; on PI3Kβ, less than 10 µM; at PI3Kα, greater than 10 µM; at PI3Kδ, less than 0.1 µM.
On to `Cc1cccc2cc([C@H](C)Nc3ncnc4[nH]cnc34)nc(N3CCN(C)CC3)c12` [Compound 109], for which the IC50 was less than 10 µM at PI3Kγ, less than 10 µM on PI3Kβ, greater than 10 µM at PI3Kα and less than 0.1 µM on PI3Kδ.
Take `C[C@H](Nc1ncnc2[nH]cnc12)c1cc2cccc(C(F)(F)F)c2c(N2CCN(C)CC2)n1` [Compound 111]: the IC50 at PI3Kγ was less than 10 µM; on PI3Kβ, less than 10 µM; at PI3Kα, greater than 10 µM; at PI3Kδ, less than 1 µM.
For `C[C@H](Nc1ncnc2cccnc12)c1cc2cccc(Cl)c2c(C(=O)N2CCOCC2)n1` [Compound 115], the IC50 at PI3Kγ is less than 1 µM; on PI3Kβ, less than 10 µM; on PI3Kα, less than 10 µM; at PI3Kδ, less than 0.1 µM.
`C[C@H](NC(=O)c1cnc2cccnn12)c1cc2cccc(Cl)c2c(C(=O)N2CCOCC2)n1` [Compound 117]: the IC50 was less than 10 µM on PI3Kγ, less than 10 µM on PI3Kβ, greater than 10 µM on PI3Kα and less than 1 µM on PI3Kδ.
As for `C[C@H](NC(=O)c1nccnc1N)c1cc2cccc(Cl)c2c(C(=O)N2CCOCC2)n1` [Compound 118], the IC50 was less than 10 µM on PI3Kγ, less than 10 µM on PI3Kβ, greater than 10 µM on PI3Kα and less than 1 µM on PI3Kδ.
Take `C[C@H](Nc1ncnc2[nH]cnc12)c1cc2cccc(Cl)c2c(C(=O)N(C)C2CCOCC2)n1` [Compound 126]: the IC50 at PI3Kγ was less than 10 µM; on PI3Kβ it was greater than 10 µM; on PI3Kα, greater than 10 µM; at PI3Kδ it was less than 1 µM.
In the case of `C[C@H](Nc1ncnc2[nH]cnc12)c1cc2cccc(Cl)c2c(OCC(=O)O)n1` [Compound 128, (S)-2-(3-(1-(9H-purin-6-ylamino)ethyl)-8-chloroisoquinolin-1-yloxy)acetic acid], the IC50 was less than 1 µM on PI3Kγ, greater than 10 µM at PI3Kβ, greater than 10 µM at PI3Kα and less than 10 µM at PI3Kδ.
As to `C[C@H](Nc1nc(N)ncc1C(F)(F)F)c1cc2cccc(Cl)c2c(CCN2CCOCC2)n1` [Compound 130], the 50% inhibitory concentration (IC50) is less than 10 µM at PI3Kγ, less than 10 µM at PI3Kβ, greater than 10 µM on PI3Kα and less than 0.1 µM at PI3Kδ.
Consider `C[C@H](Nc1ncnc2[nH]cnc12)c1cc2cccc(Cl)c2c(S(=O)(=O)CCN2CCOCC2)n1` [Compound 134], for which the IC50 on PI3Kγ is greater than 10 µM; at PI3Kβ, greater than 10 µM; at PI3Kα, greater than 10 µM; at PI3Kδ, less than 1 µM.
On to `CNC(=O)NCCOc1nc([C@H](C)Nc2ncnc3[nH]cnc23)cc2cccc(Cl)c12` [Compound 139], for which the IC50 at PI3Kγ was less than 10 µM; at PI3Kβ, less than 10 µM; on PI3Kα, greater than 10 µM; on PI3Kδ, less than 1 µM.
For `C[C@H](Nc1ncnc2[nH]cnc12)c1cc2cccc(-c3cnn(C)c3)c2c(N2CCN(C)CC2)n1` [Compound 142], the IC50 is greater than 10 µM at PI3Kγ, less than 10 µM on PI3Kβ, greater than 10 µM on PI3Kα and less than 1 µM on PI3Kδ.
As to `C[C@H](Nc1ncnc2cccnc12)c1cc2cccc(Cl)c2c(C(=O)NC2CCOCC2)n1` [Compound 143], the IC50 at PI3Kγ is less than 10 µM; at PI3Kβ, greater than 10 µM; at PI3Kα, greater than 10 µM; at PI3Kδ, less than 1 µM.
Take `Cc1cccc2cc([C@H](C)Nc3ncnc4[nH]cnc34)nc(C(=O)N3CCOCC3)c12` [Compound 147]: the IC50 was less than 10 µM on PI3Kγ, greater than 10 µM at PI3Kβ, greater than 10 µM at PI3Kα and less than 1 µM at PI3Kδ.
Consider `C[C@H](Nc1ncnc2cccnc12)c1cc2cccc(-c3cnn(C)c3)c2c(OCCN2CCCC2)n1` [Compound 148], for which the IC50 is less than 10 µM at PI3Kγ, greater than 10 µM on PI3Kβ, less than 10 µM at PI3Kα and less than 1 µM on PI3Kδ.
`C[C@H](Nc1ncnc2cccnc12)c1cc2cccc(-c3cnn(C)c3)c2c(CCN2CCOCC2)n1` [Compound 154]: the IC50 is less than 10 µM on PI3Kγ, greater than 10 µM on PI3Kβ, less than 10 µM at PI3Kα and less than 1 µM on PI3Kδ.
Turning to `C[C@H](Nc1ncnc2[nH]cnc12)c1cc2cccc(-c3cnn(C)c3)c2c(CCN2CCOCC2)n1` [Compound 157], the IC50 at PI3Kγ was less than 10 µM; at PI3Kβ it was greater than 10 µM; at PI3Kα, greater than 10 µM; on PI3Kδ, less than 1 µM.
Consider `Cc1nc([C@H](C)Nc2ncnc3[nH]cnc23)cc2cccc(-c3cccnc3)c12` [Compound 170], for which the IC50 on PI3Kγ is less than 10 µM; at PI3Kβ, greater than 10 µM; at PI3Kα, greater than 10 µM; on PI3Kδ, less than 0.1 µM.
`Cc1nc([C@H](C)Nc2ncnc3[nH]cnc23)cc2cccc(-c3cnn(C)c3)c12` [Compound 171]: the IC50 at PI3Kγ was less than 10 µM; on PI3Kβ, greater than 10 µM; at PI3Kα, less than 10 µM; at PI3Kδ it was less than 0.1 µM.
As to `C[C@H](Nc1ccnc2ccnn12)c1cc2cccc(Cl)c2c(OC2CCN(S(C)(=O)=O)CC2)n1` [Compound 174], the IC50 on PI3Kγ is greater than 10 µM; on PI3Kβ, less than 10 µM; on PI3Kα it was greater than 10 µM; on PI3Kδ it was less than 1 µM.
For the compound `C[C@H](Nc1ncnc2cccnc12)c1cc2cccc(-c3cnn(C)c3)c2c(C(=O)N2CCOCC2)n1` [Compound 187], the IC50 was less than 10 µM at PI3Kγ, greater than 10 µM at PI3Kβ, less than 10 µM on PI3Kα and less than 1 µM at PI3Kδ.
As to `C[C@H](Nc1ncnc2[nH]cnc12)c1cc2cccc(-c3cnn(C)c3)c2c(Cl)n1` [Compound 193], the IC50 at PI3Kγ is less than 1 µM; on PI3Kβ, greater than 10 µM; at PI3Kα, greater than 10 µM; on PI3Kδ, less than 0.1 µM.
In the case of `Cc1nc([C@H](C)Nc2ncnc3[nH]cnc23)cc2cccc(C(=O)N3CCOCC3)c12` [Compound 198], the IC50 on PI3Kγ was greater than 10 µM; on PI3Kβ, greater than 10 µM; on PI3Kα it was greater than 10 µM; at PI3Kδ, less than 1 µM.
As to `Cc1nc([C@H](C)Nc2ncnc3[nH]cnc23)cc2cccc(C(=O)N3C4CCC3COC4)c12` [Compound 199], the IC50 on PI3Kγ is greater than 10 µM; at PI3Kβ, greater than 10 µM; at PI3Kα it was greater than 10 µM; at PI3Kδ, less than 10 µM.

One may read the IC50 as the concentration that gives 50% inhibition.
